Like-named read-outs stand apart in the source and are kept apart here.

One experiment relates to MYB mRNA. The experiment can be described thus: RT-qPCR splicing assay, MYB canonical junction (CJ) and alternative junction (AJ) mRNA. Format: cell-based, human. The settings on record: Homo sapiens; for AC50: increase in MYB alternative junction (AJ) mRNA, read-out: MYB AJ AC50. Summed up: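 Splicing switches were read by TaqMan RT-qPCR on lysates, quantifying exon-exon junctions of the canonical and alternative-exon isoforms. Lysates came from K562 (GAPDH/GUSB reference) or A673 (PPIA reference) cells exposed 24 h to compound in 11 threefold steps from 10 uM, with DMSO ≤0.25%.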

Another experiment deals with Target C. The experiment can be described thus: RT-qPCR splicing assay panel, Target C canonical junction (CJ) mRNA. Format: cell-based, human. To be noted: Homo sapiens; Table 5 panel; canonical junction qPCR; compound concentration having 50% response in CJ decrease; read-out: Target C IC50 (decrease in CJ mRNA levels). Summed up: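 K562/A673 cells, 11-pt 3-fold compound titration from 10 uM final, DMSO ≤0.25%, 24 h 37 °C 5% CO2; lyse (DNase I or Igepal/Tris buffer pH 7.4); RT-qPCR for CJ isoform vs housekeeping gene (GAPDH/GUSB/PPIA).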

For experiment [1], the system named is K562 (human chronic myelogenous leukemia) cells. The experiment can be described thus: Cell Titer Glo 2.0 cell viability assay. To be noted: Homo sapiens, K562, 72 h, K562 cells, 72 hours, Cell Titer Glo 2.0; read-out: K562 GI50. Format: cell-based.
Where [2] appears, read: Table 5 panel, canonical junction qPCR, compound concentration having 50% response in CJ decrease, read-out: MYB IC50 (decrease in CJ mRNA levels).
The mark [3] stands for this setting: decrease in MYB canonical junction (CJ) mRNA, RT-qPCR, read-out: MYB CJ IC50.

Consider `Cc1cn2cc(-c3cc(F)c4c(=O)n([C@H]5CCNC[C@@H]5F)cnc4c3)cc(F)c2n1` (relative stereo) [Compound 341, 5-fluoro-7-(8-fluoro-2-methylimidazo[1,2-a]pyridin-6-yl)-3-(trans-3-fluoropiperidin-4-yl)quinazolin-4(3H)-one], for which the 50% inhibitory concentration (IC50) was 100 to 1000 nM with MYB mRNA (setting [2]), less than 100 nM with MYB mRNA (setting [3]) and 1000 to 10000 nM with Target C. Besides, the AC50 with MYB mRNA (RT-qPCR) lay in the range of 100 to 1000 nM. The GI50 in experiment [1] lay within 100 to 1000 nM.

As for `Cc1cn2cc(-c3cc(F)c4c(=O)n([C@H]5CCN[C@@H](C)C5)cnc4c3)cc(F)c2n1` (relative stereo) [Compound 343, cis-5-fluoro-7-(8-fluoro-2-methylimidazo[1,2-a]pyridin-6-yl)-3-(2-methylpiperidin-4-yl)quinazolin-4(3H)-one], the values for the IC50 with MYB mRNA (setting [2]), in the experiment with MYB mRNA (setting [3]) and in the experiment with Target C were less than 100 nM, less than 100 nM and 100 to 1000 nM, respectively. The AC50 with MYB mRNA (RT-qPCR) is less than 100 nM. The GI50 in experiment [1] lay within 100 to 1000 nM.

`Cc1cn2nc(-c3cc(F)c4c(=O)n([C@H]5CCNC6(CC6)C5)cnc4c3)cc(C)c2n1` (single isomer, unassigned) [Compound 357]: the IC50 with MYB mRNA (setting [2]), in the experiment on MYB mRNA (setting [3]) and with Target C was less than 100 nM throughout. Moreover, in the experiment with MYB mRNA (RT-qPCR), the AC50 was less than 100 nM. In addition, the GI50 in experiment [1] is less than 100 nM.

Take `CN1CCN(c2ccc3c(=O)n(-c4ccc5nn(C)cc5c4)cnc3c2)CC1` [Compound 152]: the IC50 with MYB mRNA (setting [2]), with MYB mRNA (setting [3]) and with Target C was greater than 10000 nM each time. Moreover, the AC50 with MYB mRNA (RT-qPCR) is 1000 to 10000 nM. Besides, the GI50 in experiment [1] lay within 1000 to 10000 nM.

For the compound `Cn1cc2cc(-n3cnc4cc(N5CCNCC5)ccc4c3=O)ccc2n1` [Compound 153], the IC50 is 1000 to 10000 nM with MYB mRNA (setting [2]) and greater than 10000 nM in the experiment with MYB mRNA (setting [3]). Further, the AC50 in the experiment on MYB mRNA (RT-qPCR) was greater than 10000 nM.

In the case of `Cc1cc(-c2ccc3c(=O)n(C4CCN(C)CC4)cnc3c2)cc2cn(C)nc12` [Compound 156], the IC50 in the experiment with MYB mRNA (setting [2]) and with MYB mRNA (setting [3]) was 1000 to 10000 nM throughout. Also, in the experiment with MYB mRNA (RT-qPCR), the AC50 is 1000 to 10000 nM.

On to `Cc1cc(-c2ccc3c(=O)n(C4CC(C)(C)NC(C)(C)C4)cnc3c2)cc2cn(C)nc12` [Compound 157], for which the IC50 in the experiment with MYB mRNA (setting [2]) and with MYB mRNA (setting [3]) was 1000 to 10000 nM each time. Besides, the AC50 with MYB mRNA (RT-qPCR) was in the range of 1000 to 10000 nM.

With `Cn1cc2cc(-n3cnc4cc(C5=CCNCC5)ccc4c3=O)ccc2n1` [Compound 158], the IC50 in the experiment with MYB mRNA (setting [2]) and with MYB mRNA (setting [3]) was greater than 10000 nM throughout. Besides, the AC50 in the experiment on MYB mRNA (RT-qPCR) is greater than 10000 nM.

`CN1CC=C(c2ccc3c(=O)n(-c4ccc5nn(C)cc5c4)cnc3c2)CC1` [Compound 159]: the IC50 in the experiment with MYB mRNA (setting [2]) and in the experiment with MYB mRNA (setting [3]) was greater than 10000 nM throughout. Moreover, in the experiment on MYB mRNA (RT-qPCR), the AC50 was greater than 10000 nM.

Consider `CCN1CCC(n2ncc3cc(-c4cc(C)c5nc(C)cn5n4)ccc3c2=O)CC1` [Compound 266], for which the IC50 with MYB mRNA (setting [2]) was 100 to 1000 nM; with MYB mRNA (setting [3]), less than 100 nM; in the experiment with Target C it was 100 to 1000 nM. Moreover, the AC50 with MYB mRNA (RT-qPCR) lay within 100 to 1000 nM. For the same compound, the GI50 in experiment [1] lay in the range of 100 to 1000 nM.

On to `Cc1cn2nc(-c3ccc4c(c3)CCN(C3CCNC(C)(C)C3)C4=O)cc(C)c2n1` (centres unmarked) [Compound 267], for which the IC50 is 1000 to 10000 nM in the experiment with MYB mRNA (setting [2]), less than 100 nM in the experiment with MYB mRNA (setting [3]) and 1000 to 10000 nM in the experiment on Target C. In addition, the AC50 in the experiment on MYB mRNA (RT-qPCR) was in the range of 1000 to 10000 nM. For the same compound, in experiment [1], the GI50 is 1000 to 10000 nM.

`Cc1cn2nc(-c3ccc4c(c3)CCN(C3CCN(C)CC3)C4=O)cc(C)c2n1` [Compound 268]: the values for the IC50 in the experiment on MYB mRNA (setting [2]), with MYB mRNA (setting [3]) and in the experiment on Target C were 1000 to 10000 nM, 100 to 1000 nM and greater than 10000 nM, respectively. In addition, the AC50 in the experiment with MYB mRNA (RT-qPCR) fell in the range of 1000 to 10000 nM. Besides, the GI50 in experiment [1] lay within 1000 to 10000 nM.

`Cc1cn2nc(-c3ccc4c(c3)CCN(C3CCNC3)C4=O)cc(C)c2n1` (centres unmarked) [Compound 269]: the IC50 with MYB mRNA (setting [2]), with MYB mRNA (setting [3]) and in the experiment with Target C was greater than 10000 nM in each case. Further, the AC50 in the experiment with MYB mRNA (RT-qPCR) is greater than 10000 nM. Further, in experiment [1], the GI50 was greater than 10000 nM.

`CCN1CCC(N2CCc3cc(-c4cc(C)c5nc(C)cn5n4)ccc3C2=O)CC1` [Compound 270]: the IC50 in the experiment with MYB mRNA (setting [2]) is 1000 to 10000 nM; in the experiment with MYB mRNA (setting [3]), 1000 to 10000 nM; with Target C, greater than 10000 nM. Also, the AC50 with MYB mRNA (RT-qPCR) lay within 1000 to 10000 nM. In experiment [1], the GI50 lay in the range of 1000 to 10000 nM.

In the case of `Cc1cn2nc(-c3ccc4c(=O)n(C5CCN(C)C5)ncc4c3)cc(C)c2n1` (centres unmarked) [Compound 271], the IC50 in the experiment on MYB mRNA (setting [2]), with MYB mRNA (setting [3]) and in the experiment on Target C was 1000 to 10000 nM each time. Also, the AC50 with MYB mRNA (RT-qPCR) lay within 1000 to 10000 nM. Also, the GI50 in experiment [1] is 1000 to 10000 nM.

The record behind these values is patent US20250332173A1, “COMPOUNDS AND METHODS FOR MODULATING NUCLEIC ACID SPLICING” (REMIX THERAPEUTICS INC., priority 2021, published 2025).
